We go through one compound from patent publication US8440442B2, “Method of assaying 5-FU” (Myriad Genetics, Inc, priority 2009, dated 2013).

Assay [1] addresses T1, dihydropyrimidine dehydrogenase (DPD) (Homo sapiens, UniProt Q12882).
T1 construct: from tissue; host or cells: donor whole blood (K2EDTA), plasma separated from it, and WBC/buffy coat
T1 sequence (Q12882 4-1025): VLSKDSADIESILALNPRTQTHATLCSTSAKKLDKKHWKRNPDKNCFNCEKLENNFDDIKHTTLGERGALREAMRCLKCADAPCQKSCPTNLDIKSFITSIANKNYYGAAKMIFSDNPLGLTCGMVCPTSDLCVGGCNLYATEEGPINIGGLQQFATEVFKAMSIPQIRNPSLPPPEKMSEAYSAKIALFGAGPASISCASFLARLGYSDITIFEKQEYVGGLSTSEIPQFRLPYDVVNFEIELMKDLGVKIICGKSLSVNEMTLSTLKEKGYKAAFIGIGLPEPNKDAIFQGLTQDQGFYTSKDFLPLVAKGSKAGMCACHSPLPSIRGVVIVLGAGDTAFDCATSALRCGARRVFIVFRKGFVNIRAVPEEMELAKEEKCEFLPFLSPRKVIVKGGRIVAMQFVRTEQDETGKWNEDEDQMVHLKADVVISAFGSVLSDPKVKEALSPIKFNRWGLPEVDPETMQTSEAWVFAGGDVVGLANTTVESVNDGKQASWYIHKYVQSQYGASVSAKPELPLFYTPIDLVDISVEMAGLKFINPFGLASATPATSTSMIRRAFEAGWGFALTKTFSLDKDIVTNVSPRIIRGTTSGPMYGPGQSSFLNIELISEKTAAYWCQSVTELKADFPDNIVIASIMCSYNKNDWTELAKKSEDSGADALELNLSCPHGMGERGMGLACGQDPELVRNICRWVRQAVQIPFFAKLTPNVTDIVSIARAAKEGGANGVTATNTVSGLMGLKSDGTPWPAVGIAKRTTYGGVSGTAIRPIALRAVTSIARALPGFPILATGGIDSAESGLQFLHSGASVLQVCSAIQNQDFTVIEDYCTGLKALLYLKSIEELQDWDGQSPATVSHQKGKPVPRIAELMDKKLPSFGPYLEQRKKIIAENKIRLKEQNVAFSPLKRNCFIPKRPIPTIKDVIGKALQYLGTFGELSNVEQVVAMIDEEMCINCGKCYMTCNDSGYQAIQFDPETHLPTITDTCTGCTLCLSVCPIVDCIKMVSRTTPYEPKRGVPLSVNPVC
As to the kind of experiment: Low concentrations of gimeracil in 5-FU spiked blood, plasma 5-FU initial and after 24 hr. The format is biochemical. The following applies: for 5-FU concentration, Initial / 5-FU concentration, 24 hr: blood spiked 500 ng/mL 5-FU; for 5-FU concentration, Initial: after plasma collection; for 5-FU concentration, 24 hr: plasma 24 hours at room temperature. The method, then: (§1) In the following illustrative examples, 5-FU was measured using an antibody-based agglutination assay on the Olympus AU680 Analyzer using an antibody disclosed in U.S. Pat. No. 7,205,116. Specifically, the concentration of 5-FU in a sample is determined based on the absorbance of a sample, which is determined by the amount of aggregation by the nanoparticles. The system requires two reagents, which when mixed in the absence of free 5-FU will form large aggregates of nanoparticles and scatter light to result in a higher absorption value. In the presence of free 5-FU, the agglutination reaction becomes somewhat inhibited and scattering of light is less, causing a lower absorption value. The instrument is calibrated twice monthly, and a curve is generated (Absorbance vs. 5-FU concentration). Absorbance values from individual samples are compared against this curve to determine concentration.
(§2) Generally in the agglutination assay, 95 μl of a buffer containing 5-FU-labeled amino-dextran is pipetted to a cuvette, followed by 7 μL of a filtered plasma sample. The sample and reagent are mixed and then incubated for about 3.5 minutes. 95 μl of 5-FU antibody-conjugated nanoparticles is pipetted into the cuvette and mixed. The complete reaction incubates for about 6.2 minutes. A series of 27 measurements at 600 nm are taken at regular intervals by the AU680 analyzer throughout this process, and 5-FU concentration is calculated using the measurements from two specific time points.
Four tubes of blood (spray-on K2EDTA tubes, 10 mL) was drawn from each of five donors, and gently inverted several times to mix anti-coagulant. Blood was pooled by donor into conical tubes. An aliquot of each donor's blood was transferred to a clean tube. A calculated volume of 5-FU stock (at 200 ng/μL) was added to each blood sample to achieve a final concentration of 500 ng/mL 5-FU, and tubes were inverted to mix. Spiked blood was aliquotted into clean tubes, nine tubes per donor and 3.5 mL of blood per tube. Gimeracil was added to the tubes at a final concentration of 200, 400, or 600 ng/mL for each tube. In addition, in control samples, methanol was added to the blood instead of gimeracil, in order to serve as a negative control. The blood tubes sat at room temperature for 45 minutes after the addition of the gimeracil or methanol. At the appropriate times, the blood tubes were centrifuged at 2000×g for 10 minutes at room temperature to separate plasma. Plasma was aspirated immediately after centrifugation, and the plasma was dispensed into clean tubes. Plasma samples were run using standard conditions for Olympus AU680 analyzer (200 μL, spin for 15 minutes at 12,500 rpm). Measurements of 5-FU concentration were taken after plasma collection (“initial”) and 24 hours (“24 hr”) thereafter. For the 24 hr measurement, plasma was stored at room temperature during the 24 hours. As shown in Table 2 and FIG. 4, low concentrations of gimeracil in blood is also effective at inhibiting DPD-mediated degradation of 5-FU. The overall percent difference in 5-FU concentration between the samples containing 200 ng/mL and 600 ng/mL gimeracil is less than 1%.

In assay [2] the target is T1, dihydropyrimidine dehydrogenase (DPD). As to the kind of experiment: Extended incubation of gimeracil in blood before plasma separation. Conditions: gimeracil 1200 ng/mL; for 5-FU Concentration 24 hrs after plasma separation / 5-FU Concentration Upon plasma separation: 500 ng/mL 5-FU. It counts as biochemical. The method, then:
as §1, §2
Six tubes of blood (spray-on K2EDTA tubes, 6 mL) was drawn from each of six donors, and the blood tubes were inverted several times to mix the anti-coagulant into the blood. Blood tubes were pooled and kept separate by donor. An aliquot of each donor's blood was transferred to a new tube, and a calculated volume of 5-FU stock (at 200 ng/μL) was added to each blood sample to achieve a final concentration of 500 ng/mL 5-FU. Spiked blood samples were aliquotted to clean tubes, 4 mL of blood to each of 8 tubes per donor. Gimeracil in methanol solvent was added to the blood tubes to reach a final concentration of 1200 ng/mL. For negative control, methanol only is added to the control blood tube. Blood tubes sat at room temperature for 45 minutes, 24 hours, or 48 hours before plasma separation. At the appropriate times, the blood tubes were centrifuged at 2000×g for 10 minutes at room temperature for plasma separation. The plasma was aspirated immediately after centrifugation and dispensed into clean cryovials. For 5-FU assays, the plasma samples were run under standard conditions for the Olympus AU680 analyzer, as described above (200 μL, spin for 15 minutes at 12,500 rpm). Measurements of 5-FU concentration were taken after plasma collection and for 2 days following the initial reading. Plasma was stored at room temperature during the interval.

For `Oc1cc(O)c(Cl)cn1` [Gimeracil, 5-chloro-2,4-dihydroxypyridine], the “overall percent difference in 5-FU concentration between samples containing 200 ng/mL and 600 ng/mL gimeracil” value in assay [1] (500 ng/mL 5-FU spiked blood) was “less than 1%”. In addition, the “5-FU concentration, Initial” value in assay [1] (gimeracil 200 ng/mL) came to 518.7; in assay [1] (gimeracil 400 ng/mL), 523.0; in assay [1] (gimeracil 600 ng/mL), 519.5. The results for the “5-FU concentration, 24 hr” value in assay [1] (gimeracil 200 ng/mL), in assay [1] (gimeracil 400 ng/mL) and in assay [1] (gimeracil 600 ng/mL) were 523.4, 521.6 and 523.3, respectively. In assay [1] (low concentrations of gimeracil in blood (200, 400, 600 ng/mL), Table 2 and FIG. 4), the “inhibiting DPD-mediated degradation of 5-FU” value is “effective”. Besides, the results for the “5-FU Concentration 24 hrs after plasma separation” value in assay [2] (45 minute incubation in blood), in assay [2] (24 hours incubation in blood) and in assay [2] (48 hours incubation in blood) were 538.1 ng/mL, 551.9 ng/mL and 578.4 ng/mL, respectively. The “5-FU Concentration Upon plasma separation” value in assay [2] (45 minute incubation in blood) was 533.3 ng/mL; in assay [2] (24 hours incubation in blood), 551.8 ng/mL; in assay [2] (48 hours incubation in blood) it was 581.3 ng/mL. Moreover, the “effect of keeping gimeracil in blood without plasma separation for a longer time” value in assay [2] (24 or 48 hours in blood (FIG. 5)) is “may cause 5-FU concentration to artificially increase”.
